In paper PMC6399351, “Cationic Intrinsically Disordered Antimicrobial Peptides (CIDAMPs) Represent a New Paradigm of Innate Defense with a Potential for Novel Anti-Infectives” (Scientific Reports, 2019):
Values after ≈ are worked out from the molar mass of the structure shown. Values joined by “and” are separate entries in the source; they are usually repeats but may differ in a detail not shown here. Identical values can stand only once. Like-named read-outs stand apart in the source and are kept apart here. Peptide text beside a SMILES is read from it. * marks the point of attachment. Palmitoyl = CCCCCCCCCCCCCCCC(=O)*

Experiments:
[1] = tested on: Staphylococcus hominis ATCC 27844; conditions: CFU assay, 10 mM NaP, pH 7.3, 1% TSB
[2] = tested on: Klebsiella pneumonia ATCC 700603; conditions: MDR strain; CLSI, Mueller–Hinton broth, 5 × 10^5 CFU/mL, 18 h 37 °C, by CO-ADD
[3] = tested on: P. aeruginosa ATCC 10145; conditions: CFU assay, 10 mM NaP
[4] = tested on: E. coli ATCC 25922; assay: CO-ADD MIC, broth microdilution (CLSI); format: cell-based, Escherichia coli; conditions: Mueller–Hinton broth, 5 × 10^5 CFU/mL, 18 h 37 °C, by CO-ADD
Text: They were defined as the lowest peptide
Further details of the screening

[5] = tested on: Corynebacterium simulans DSM 44415; assay: CFU assay of antimicrobial activity; format: cell-based; conditions: 10 mM NaP, pH 7.3, 1% TSB
Description: All purified peptides and recombinant proteins were applied using a colony forming unit (CFU) assay in different media. Bacteria were grown to early log-phase in BHI, washed either with 10 mM Na-P, pH 7.4/1% TSB or pH 5.5/1% TSB, or pH 5.5 without TSB or BHI, and adjusted to a concentration of 10^4–10^5 colony forming units (CFU)/ml. For cell number control, 100 µl aliquots were diluted 1:10, 1:100 and 1:1000 and plated in duplicates on BHI agar plates. […]
Then bacteria were incubated for 2 h at ambient temperature, if not otherwise stated. 10 µl of 0.01% (v/v) acetic acid, added to 100 µl aliquots of the bacteria in the respective medium, served as negative control. From each test, 1:10 and 1:100 dilutions were generated and plated as duplicates of 100 µl aliquots on BHI agar plates. After 16 h incubation at 37 °C, CFU were counted using a colony counter (Bio Kobe, Japan) and expressed as mean of the duplicate estimation to achieve a complete dose-response curve. All experiments were performed at serial dilutions in a concentration range of 100 µg/mL −25 ng/mL for recombinant HRNR fragments and 300 or 150 µg/mL–19 ng/mL for synthetic peptides.

[6] = tested on: Burkholderia cepacia ATCC 25416; conditions: CFU assay, 10 mM NaP
[7] = tested on: Klebsiella pneumoniae ATCC 13883; conditions: CFU assay, 10 mM NaP
[8] = tested on: S. aureus ATCC 6538; conditions: CFU assay
[9] = tested on: Peptostreptococcus magnus ATCC 15794; assay: CFU assay of antimicrobial activity; format: cell-based, Peptostreptococcus magnus (now Finegoldia magna); conditions: 10 mM NaP, pH 7.3, 1% TSB
Description: All purified peptides and recombinant proteins were applied using a colony forming unit (CFU) assay in different media. Bacteria were grown to early log-phase in BHI, washed either with 10 mM Na-P, pH 7.4/1% TSB or pH 5.5/1% TSB, or pH 5.5 without TSB or BHI, and adjusted to a concentration of 10^4–10^5 colony forming units (CFU)/ml. For cell number control, 100 µl aliquots were diluted 1:10, 1:100 and 1:1000 and plated in duplicates on BHI agar plates. To 100 µl aliquots of the bacteria, suspended in the respective medium (10 mM Na-P buffer pH 7,0–7,4/ 1% (w/v) TSB; 10 mM Na-P buffer pH 5,5/ 1% (w/v) TSB; 10 mM Na-P buffer pH 7,0–7,4/ 1% (w/v) TSB pH 7,0–7,4/ 0,25% (w/v) glucose; 10 mM Na-P buffer pH 5,5/ 0,25% (w/v) glucose, respectively), 10 µl of a solution of the peptide or protein (two-fold dilutions, from 300 µg/ml or 150 µg/ml down to 19 ng/ml), dissolved in 0.01% (v/v) acetic acid, were added.
Then bacteria were incubated for 2 h at ambient temperature, if not otherwise stated. 10 µl of 0.01% (v/v) acetic acid, added to 100 µl aliquots of the bacteria in the respective medium, served as negative control. […] After 16 h incubation at 37 °C, CFU were counted using a colony counter (Bio Kobe, Japan) and expressed as mean of the duplicate estimation to achieve a complete dose-response curve. […]

[10] = tested on: Clostridium perfringens ATCC 13124; conditions: CFU assay, 10 mM NaP
[11] = tested on: Streptococcus pyogenes ATCC 12344; assay: CFU assay of antimicrobial activity; format: cell-based; conditions: 10 mM NaP, pH 7.3, 1% TSB
Procedure, shortened: (§1)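 Early log-phase bacteria grown in BHI were exposed at 10^4–10^5 CFU/ml for 2 h at ambient temperature. Two-fold serial dilutions spanned 300 or 150 µg/mL–19 ng/mL (synthetic peptides) or 100 µg/mL–25 ng/mL (recombinant HRNR fragments), and colonies were counted after 16 h at 37 °C.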

[12] = tested on: Streptococcus pneumoniae ATCC 33400; assay: CFU assay of antimicrobial activity; format: cell-based; conditions: 10 mM NaP, pH 7.3, 1% TSB
Procedure, shortened: as §1

[13] = tested on: Moraxella osloensis RV A2/2001; conditions: CFU assay, 10 mM NaP, pH 7.3, 1% TSB

CCCCCCCCCCCCCCCC(=O)NCC(=O)N[C@@H](CCCNC(=N)N)C(=O)N[C@@H](CCCNC(=N)N)C(=O)NCC(=O)NCC(=O)N[C@@H](CCCNC(=N)N)C(=O)NCC(=O)NCC(=O)N[C@@H](CCCNC(=N)N)C(=O)NCC(=O)N[C@@H](CCCNC(=N)N)C(=O)NCC(=O)N[C@@H](CCCNC(=N)N)C(=O)O [Pal-GR13] (Palmitoyl-GRRGGRGGRGRGR-OH)
LD90 [1]: 1.18 µg/mL | Minimal inhibitory concentration (MIC) [2]: ≥16 µg/mL | LD90 ([3]; pH 5.5, 0.25% glucose): 0.075 µg/mL | LD90 ([3]; pH 7.3, 1% TSB): 0.3 µg/mL | Minimal inhibitory concentration (MIC) [4]: 4 µg/mL (≈ 2.51 µM) | LD90 [5]: 0.59 µg/mL | LD90 ([6]; pH 5.5, 0.25% glucose): >300 µg/mL | LD90 ([6]; pH 7.3, 0.25% glucose): 4.7 µg/mL | LD90 ([6]; pH 7.3, 1% TSB): 18.75 µg/mL | LD90 ([7]; pH 5.5, 0.25% glucose): 0.15 µg/mL | LD90 ([7]; pH 7.3, 1% TSB): 1.18 µg/mL | LD90 ([8]; 10 mM NaP, pH 5.5, 0.25% glucose): 0.075 µg/mL and 0.15 µg/mL | LD90 ([8]; 10 mM NaP, pH 5.5, 1% TSB): 0.3 µg/mL | LD90 ([8]; 10 mM NaP, pH 7.3, 1% TSB): 0.3 µg/mL | LD90 ([8]; value in molar units): 47 nM | LD90 [9]: 4.7 µg/mL | LD90 ([10]; pH 5.5, 0.25% glucose): 37.5 µg/mL | LD90 ([10]; pH 7.3, 0.25% glucose): 4.7 µg/mL | LD90 ([10]; pH 7.3, 1% TSB): 18.75 µg/mL | LD90 [11]: 0.15 µg/mL | LD90 [12]: 2.35 µg/mL | LD90 [13]: 0.59 µg/mL
